Laboratory results taken from patent US20230193038A1, “METHODS OF DIGITAL PRINTING USING MODIFIED INDIGO COMPOUNDS” (VP Jeanswear LP, priority 2017, published 2023).

Assay: Conversion of the modified indigo compound to indigo under hydrolyzing conditions
Format: physicochemical
Experimental: The hydrolysis is performed using any chemical compound or condition that is capable of converting the dye compound to indigo. In some embodiments, the hydrolysis is performed in aqueous compositions which contain a hydrolyzing agent. In other embodiments, the hydrolyzing agent may be selected by one skilled in the art and may include, without limitation, a base, heat, steam, or a combination thereof.

SMILES: O=C1/C(=C2/C(=O)c3ccccc3N2C(=O)c2ccncc2)N(C(=O)c2ccncc2)c2ccccc21 [Compound 37]
- hydrolysis to indigo: hydrolyzes to indigo
